Data set [1] in a line: Dynamic vapor sorption (moisture sorption, moisture balance) with post-sorption XRPD. The class given is physicochemical. The settings on record: for weight loss from 95 to 5% RH: desorption 95-5% RH; for post-moisture sorption (post-MB / post-DVS) XRPD result: solid after DVS cycle; for weight gain from 5 to 95% RH: sorption 5-95% RH. The method, then:
Automated vapor sorption (VS) data were collected on a VTI SGA-100 Vapor Sorption Analyzer. NaCl and PVP were used as calibration standards. Samples were not dried prior to analysis. […] The equilibrium criterion used for analysis was less than 0.0100% weight change in 5 minutes with a maximum equilibration time of 3 hours. Data were not corrected for the initial moisture content of the samples.
Automated dynamic vapor sorption (DVS) data were collected on a VTI SGA-100 Vapor Sorption Analyzer. NaCl and PVP were used as calibration standards. Samples were not dried prior to analysis. […] The equilibrium criterion used for analysis was less than 0.0100% weight change in 5 minutes with a maximum equilibration time of 3 hours.

Data set [2] can be described thus: Ambient storage / exposure to ambient conditions, XRPD. It counts as physicochemical. To be noted: for XRPD result after ambient storage: 8 days of ambient storage, large-scale sample. The source says: Form θ drying and physical stability evaluation was not formally included in the protocol. […] The initial sample was generated from nitrogen drying of Form ζ. The initial XRPD pattern was acquired utilizing parameters not consistent with the other data acquisition.

The nature of data set [3]: Relative humidity stressing at ambient temperature, XRPD of stressed solid. The class given is physicochemical.
The conditions of data set [4]: VS w/ACN. How it is done:
Subsequent characterization of cocrystal 2 was conducted quickly after isolating vapor stressed samples.
The 20-mL vial was capped and left at ambient conditions for vapor stress.

The conditions of data set [5]: water slurry, 5 minutes, 3 hours and 7 hours. The method, then:
In order to be able to measure the aqueous solubility (equilibrium or kinetic) of a cocrystal, it should remain intact upon exposure to aqueous conditions for some duration. If it dissociates or changes forms quickly upon contact with water, intrinsic dissolution may be introduced as an alternative to solubility, in which dissolution of a pellet of the cocrystal is measured; however, the cocrystal must not change form upon compression.

The conditions of data set [6]: 1000 psi, 1 min.
A short description of data set [7]: Properties of the Rifaximin:piperazine cocrystals (summary, Table 12). To be noted: summary column of Table 12.

SMILES strings stand for the structures. Entries after “also recorded” stand apart in the source; their conditions may differ. Where two headings read alike, the source gives them in different places. Marks after values point to notes of the source that are not given here.

Turning to `CO[C@H]1/C=C/O[C@@]2(C)Oc3c(C)c(O)c4c(O)c(c5c(nc6cc(C)ccn65)c4c3C2=O)NC(=O)/C(C)=C\C=C\[C@H](C)[C@H](O)[C@@H](C)[C@@H](O)[C@@H](C)[C@H](OC(C)=O)[C@@H]1C` [Form θ, rifaximin], in data set [1] (listed as Rifaximin Form θ), the “weight loss from 95 to 5% RH” value was 5.826% wt lost from 95%-5% RH, the “post-moisture sorption (post-MB / post-DVS) XRPD result” value is “ι” and the “weight gain from 5 to 95% RH” value is given as 5.733% wt gain from 5%-95% RH. Also, in data set [1] (listed as rifaximin Form θ), the “weight loss from 95 to 5% RH” value came to 5.8%, the “post-moisture sorption (post-MB / post-DVS) XRPD result” value is “Form ι; also recorded: Form t” and the “weight gain from 5 to 95% RH” value is listed as 5.7%. Moreover, the “weight loss upon equilibration at 5% RH” value in data set [1] (initial equilibration at 5% RH, listed as rifaximin Form θ) came to 7.3%. The “wt change upon equilibration at 5% RH” value in data set [1] (signed change, initial equilibration at 5% RH) is −7.314% wt change upon equilibration at 5% RH. Further, the “overall weight loss in moisture sorption” value in data set [1] (whole sorption/desorption cycle, listed as rifaximin Form θ) is reported as “approximately 7.4%”. In data set [2], the “XRPD result after ambient storage” value was “remained Form θ”. Moreover, the “XRPD result after ambient storage” value in data set [2] (listed as Rifaximin Form θ) is “θ (after 8 days of ambient storage)”. In data set [2] (reanalyzed within hours, nitrogen-dried sample), the “XRPD result on reanalysis” value is reported as “conversion to Form ι”.

Consider `C1CNCCN1.COC1C=COC2(C)Oc3c(C)c(O)c4c(O)c(c5c(nc6cc(C)ccn65)c4c3C2=O)NC(=O)C(C)=CC=CC(C)C(O)C(C)C(O)C(C)C(OC(C)=O)C1C.COC1C=COC2(C)Oc3c(C)c(O)c4c(O)c(c5c(nc6cc(C)ccn65)c4c3C2=O)NC(=O)C(C)=CC=CC(C)C(O)C(C)C(O)C(C)C(OC(C)=O)C1C` (stereo not shown) [cocrystal 1, rifaximin:piperazine cocrystal 1], for which the “hygroscopicity by DVS” value in data set [1] is reported as “quite hygroscopic”. Moreover, in data set [1] (listed as sample 4), the “weight loss from 95 to 5% RH” value was 11.47% weight loss from 95-5% RH. The “weight loss upon equilibration at 5% RH” value in data set [1] (initial equilibration at 5% RH) came out at 3.54% weight loss at 5% RH. In addition, the “post-moisture sorption (post-MB / post-DVS) XRPD result” value was “broad peaks, similar to cocrystal 1 with additional peaks at approximately 5 and 17°2θ; also recorded: broad peaks, similar to cocrystal 1 plus peaks at approximately 5 and 17°2θ” in data set [1]; “conversion to a material similar to cocrystal 1 plus two additional peaks” in data set [1] (listed as Cocrystal 1). Further, the “weight gain from 5 to 95% RH” value in data set [1] (listed as sample 4) is 10.78% weight gain from 5-95% RH. Further, the “XRPD result after RH stress” value in data set [3] (~75% RH, 1 week) is reported as “broad peaks, similar to cocrystal 1+ peak at ˜5°2θ”; in data set [3] (~75% RH, 1 week, listed as Cocrystal 1) it was “broad peaks, similar to cocrystal 1 with an additional peak at approximately 5°2θ”; in data set [3] (~75% RH, 2 weeks), “broad peaks, similar to cocrystal 1+ peak at ˜5°2θ”; in data set [3] (~75% RH, 2 weeks, listed as Cocrystal 1), “broad peaks, similar to cocrystal 1 with an additional peak at approximately 5°2θ”; in data set [3] (~75% RH, 3 days), “broad peaks, similar to cocrystal 1+ peak at ˜5°2θ”; in data set [3] (~75% RH, 3 days, listed as Cocrystal 1) it was “broad peaks, similar to cocrystal 1 with an additional peak at approximately 5°2θ”. The “XRPD result after RH stress” value is given as “Conversion to Rifaximin Form β-1” in data set [3] (~97% RH, 1 week, listed as Cocrystal 1); “API, Form β-1” in data set [3] (~97% RH, 1 week, listed as Rifaximin:Piperazine Cocrystal 1); “conversion to Rifaximin Form β-1” in data set [3] (~97% RH, 3 days, listed as Cocrystal 1); “API, Form β-1” in data set [3] (~97% RH, 3 days, listed as Rifaximin:Piperazine Cocrystal 1). In addition, the “XRPD result after vapor stress with ACN” value in data set [4] (7 days) is “conversion to cocrystal 2”; in data set [4] (7 days, listed as Cocrystal 1), “Cocrystal 2 resulted by XRPD”; in data set [4] (7 days, listed as Rifaximin:Piperazine Cocrystal 1) it was “cocrystal 2^c”; in data set [4] (24 days, sample stood capped at ambient approx. 5-6 hours before XRPD), “gave cocrystal 1 by XRPD”; in data set [4] (24 days, sample stood capped at ambient approx. 5-6 hours before XRPD, listed as Rifaximin:Piperazine Cocrystal 1) it was “cocrystal 1^b”. The “XRPD result after slurrying in water” value in data set [5] (listed as Rifaximin:Piperazine Cocrystal 1) was “API, Form β-1”; in data set [5] (listed as Rifaximin:piperazine cocrystal 1), “conversion to Rifaximin Form β-1”. The “XRPD result after compression” value in data set [6] is “additional peaks at approximately 5 and 17°2θ were observed by XRPD, and the material was low crystalline”. Besides, the “Properties (hygroscopicity, stability)” value in data set [7] is recorded as “likely falls apart upon heating; also recorded: hygroscopic”.

(Values after patent publication US8513275B2 (Salix Pharmaceuticals, Ltd, priority 2010, dated 2013).)
